Reference: paper PMC8199500, “Novel Bis- and Mono-Pyrrolo[2,3-d]pyrimidine and Purine Derivatives: Synthesis, Computational Analysis and Antiproliferative Evaluation” (Molecules, 2021)
Read-outs that look alike come from different tables or passages of the source.

Assays:
[1] = tested on: metastatic colorectal adenocarcinoma (SW620) cells; assay: MTT proliferation assay, SW620 cells; type: cell-based, human
Experimental: (§1) Human carcinoma cell lines A549 (lung carcinoma), HeLa (cervical carcinoma), SW620 (colorectal adenocarcinoma, metastatic) and CFPAC-1 (pancreatic cancer, derived from metastatic: liver), and normal human foreskin (HFF-1) fibroblasts were obtained from the American Type Culture Collection (ATCC, Manassas, VA, USA). Cells were cultured in humidified atmosphere at 37 °C with 5% CO2. As growth medium, Dulbecco′s modified Eagle medium (DMEM) was used with the addition of fetal bovine serum (10%), L-glutamine (2 mM) and antibiotics: streptomycin ([…]) and penicillin (100 U/mL).
(§2) Cells were seeded onto 96-well microtiter plates at a seeding density of 3000 cells/well for carcinoma cell lines, and 5000 cells/well for normal human fibroblasts. The next day, cells were treated with test agents in five different concentrations (0.01–100 µM) and further incubated for 72 h. […] Following 72 h incubation, the MTT assay was performed and measured absorbances were transformed into percentage of cell growth as described previously. Results were obtained from three independent experiments. IC50 values were calculated using linear regression analysis and results were statistically analyzed by ANOVA, Tukey post-hoc test (p < 0.05).

[2] = tested on: ductal pancreatic adenocarcinoma (CFPAC-1) cells; assay: MTT proliferation assay, CFPAC-1 cells; type: cell-based, human
Experimental: as §1, §2

[3] = tested on: cervical carcinoma (HeLa) cells; assay: MTT proliferation assay, HeLa cells; type: cell-based, human; settings: 72 h incubation
Experimental: as §1, §2

[4] = tested on: normal human foreskin fibroblasts (HFF-1); assay: MTT proliferation assay, normal fibroblasts HFF-1; type: cell-based; settings: 72 h incubation
Experimental: as §1, §2

[5] = tested on: lung adenocarcinoma (A549) cells; assay: MTT proliferation assay, A549 cells; type: cell-based, human
Experimental: as §1, §2

[6] = tested on: CFPAC-1 cells; assay: Annexin V assay for apoptosis detection; type: cell-based, human; settings: for viability at 3.95 µM / viability at 1.58 µM: Homo sapiens, CFPAC-1, read-out: viable cells (Ann−/PI−)
Experimental: Cells were seeded into 8-well chambers (Lab-tek II Chamber Slides, Thermo Fisher Scientific, Waltham, MA, USA) in a concentration of 2 × 10^4 cells per well and treated with 2 × IC50 and 5 × IC50 concentrations of selected compounds for 48 and 72 h. Staining of the cells was performed by Annexin-V-FITC Staining kit (Santa Cruz Biotechnology, Dallas, TX, USA) according to the manufacturer′s instructions. Cells were visualised by fluorescent microscope (Olympus, Tokyo, Japan) at magnification of 40×.

[7] = tested on: human tumor cell lines (A549, HeLa, CFPAC-1, SW620); assay: MTT proliferation assay, all evaluated tumor cell lines; type: cell-based; settings: read-out: antiproliferative activity (IC50) over the evaluated tumor cell lines
Experimental: as §1, §2

[8] = Homo sapiens, SW-620, 72 h incubation
[9] = Homo sapiens, CFPAC-1, 72 h incubation
[10] = Homo sapiens, A549, 72 h incubation
[11] = 48 h treatment, 1.85 µM (2 × IC50)
[12] = 48 h treatment, 3.95 µM (5 × IC50)
[13] = 72 h treatment, 1.85 µM (2 × IC50)
[14] = 72 h treatment, 3.95 µM (5 × IC50)

With `C#CCOc1ccc(-c2ccc(OCc3cn(CCn4cnc5c(N6CCCCC6)ncnc54)nn3)cc2)cc1` [9f, 6-(piperidin-1-yl)-9-{2-[4-(((4′-(prop-2-yn-1-yloxy)-[1,1′-biphenyl]-4-yl)oxy)methyl)-1H-1,2,3-triazol-1-yl]ethyl}-9H-purine] the IC50 [1, 8] was 23.2 ± 3.2 µM, the IC50 [2, 9] was 2.9 ± 1 µM and the melting point was 221 to 225 °C. It also gave an IC50 ([3]; Homo sapiens, HeLa) of 3.9 ± 0.69 µM, an IC50 [4] of 4.3 µM and an IC50 [5, 10] of 9.3 ± 0.1 µM.

Work on `C#CCOc1ccc(-c2ccc(OCc3cn(CCn4ccc5c(Cl)ncnc54)nn3)cc2)cc1` [5f, 4-chloro-7-{2-[4-(((4′-(prop-2-yn-1-yloxy)-[1,1′-biphenyl]-4-yl)oxy)methyl)-1H-1,2,3-triazol-1-yl]ethyl}-7H-pyrrolo[2,3-d]pyrimidine] yielded an IC50 [1, 8] of 8 ± 1.8 µM, an IC50 [2, 9] of 0.79 ± 0.03 µM and an IC50 ([3]; Homo sapiens, HeLa) of 0.98 ± 0.44 µM. The IC50 [4] was 0.62 µM, the IC50 [5, 10] was 6.9 ± 1.1 µM and the “mode of cell death in CFPAC-1 cells” value ([6]; 48 and 72 h, 2 × IC50 and 5 × IC50) was “induces apoptosis and primary necrosis in CFPAC-1 cells in a concentration- and time-dependent manner”. For the same molecule, the “early apoptotic cells (Ann+)” value [6, 11] was 11.76 ± 3.58%, the “late apoptotic/primary necrotic cells (Ann+/PI+)” value [6, 11] was 5.88 ± 1.44% and the “secondary necrotic cells (PI+)” value [6, 11] was 2.72 ± 0.56%. For the same molecule, the “early apoptotic cells (Ann+)” value [6, 12] was 21.21 ± 1.35%, the “late apoptotic/primary necrotic cells (Ann+/PI+)” value [6, 12] was 6.56 ± 0.24% and the “secondary necrotic cells (PI+)” value [6, 12] was 4.05 ± 1.22%. The “decrease in cell viability vs control” value ([6]; 48 h treatment, 5 × IC50) was 28.4%, the “increase in the percentage of cells in early apoptosis vs control” value ([6]; 48 h treatment, 5 × IC50) was 21.21% and the “early apoptotic cells (Ann+)” value [6, 13] was 30.36 ± 1.49%. The “late apoptotic/primary necrotic cells (Ann+/PI+)” value [6, 13] was 10.71 ± 4.89%, the “secondary necrotic cells (PI+)” value [6, 13] was 2.68 ± 0.37% and the “early apoptotic cells (Ann+)” value [6, 14] was 39.63 ± 8.54%. For the same molecule, the “late apoptotic/primary necrotic cells (Ann+/PI+)” value [6, 14] was 26.14 ± 2.57%, the “secondary necrotic cells (PI+)” value [6, 14] was 6.3 ± 2.45% and the “increase in early apoptotic cells vs control” value ([6]; 72 h treatment, 2 × IC50) was 24.08%. For the same molecule, the “increase in early apoptotic cells vs control” value ([6]; 72 h treatment, 5 × IC50) was 33.35%, the “rise in late apoptotic/primary necrotic cells vs control” value ([6]; 72 h treatment, 5 × IC50) was 26.14% and the viability at 3.95 µM [6, 12] was 68.2 ± 0.94%. It also gave a viability at 1.58 µM ([6]; 48 h treatment) of 79.6 ± 2.57%, a viability at 3.95 µM [6, 14] of 27.9 ± 3.23% and a viability at 1.58 µM ([6]; 72 h treatment) of 56.2 ± 6.56%.

In the case of “{1-[2-(4-(Piperidin-1-yl)-7H-pyrrolo[2,3-d]pyrimidin-7-yl)ethyl]-1H-1,2,3-triazol-4-yl}methyl ether [6d]”, the IC50 ([1]; 72 h incubation) is reported as 45.5 ± 3.3 µM, the IC50 ([2]; 72 h incubation) is reported as 37.9 ± 3.7 µM and the IC50 [3] is reported as 28.2 ± 9 µM. The IC50 ([5]; 72 h incubation) was 51.9 ± 3 µM and the IC50 [7] was 28.2 to 65.2 µM.

Work on `c1nc(N2CCCCC2)c2ccn(CCn3cc(CCCc4cn(CCn5ccc6c(N7CCCCC7)ncnc65)nn4)nn3)c2n1` [6c, 1,3-Bis{1-[2-(4-(piperidin-1-yl)-7H-pyrrolo[2,3-d]pyrimidin-7-yl)ethyl]-1H-1,2,3-triazol-4-yl}propane] yielded an IC50 [1, 8] of 65.2 ± 4.8 µM, an IC50 [2, 9] of 48.7 ± 1.5 µM and a melting point of 145 to 147 °C. It also gave an IC50 ([3]; Homo sapiens, HeLa) of 33.7 ± 8.9 µM, an IC50 [5, 10] of 59.3 ± 4.9 µM and an IC50 ([7]; Homo sapiens) of 28.2 to 65.2 µM.

Molecule `c1nc(N2CCCC2)c2ccn(CCn3cc(COc4ccc(OCc5cn(CCn6ccc7c(N8CCCC8)ncnc76)nn5)cc4)nn3)c2n1` [7a, 1,4-Bis{[1-(2-(4-(pyrrolidin-1-yl)-7H-pyrrolo[2,3-d]pyrimidin-7-yl)ethyl)-1H-1,2,3-triazol-4-yl]methoxy}benzene] has an IC50 [1, 8] of 78 ± 2.1 µM, an IC50 [2, 9] of 25.8 ± 0.98 µM and a melting point of 193 to 195 °C. The IC50 ([3]; Homo sapiens, HeLa) was 6.4 ± 0.35 µM, the IC50 [4] was 0.81 µM and the IC50 [5, 10] was 49.3 ± 6.4 µM.
